Test results taken from article PMC6525040 (ChemMedChem, 2019).

What was measured:
[1] = target: T1, Human RAD51 protein binding to ssDNA (Homo sapiens, UniProt Q06609); experiment: RAD51-DNA binding assay; conditions: gel shift, 0.5 μM RAD51
T1 sequence (Q06609 1-339): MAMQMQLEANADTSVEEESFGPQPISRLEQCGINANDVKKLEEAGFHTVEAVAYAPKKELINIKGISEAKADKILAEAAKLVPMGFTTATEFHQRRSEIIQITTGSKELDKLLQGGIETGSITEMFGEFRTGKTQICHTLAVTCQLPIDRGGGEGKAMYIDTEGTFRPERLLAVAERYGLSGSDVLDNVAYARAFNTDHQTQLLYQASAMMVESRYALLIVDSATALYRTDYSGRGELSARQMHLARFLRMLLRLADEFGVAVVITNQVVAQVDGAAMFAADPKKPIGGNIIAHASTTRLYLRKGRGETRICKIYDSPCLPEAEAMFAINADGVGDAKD

[2] = system: relaxed covalently-closed circular dsDNA plasmid (pRS306); experiment: dsDNA intercalation assay; format: binding; conditions: 10 μM; DMSO vehicle defined as 0, saturation of the endpoint = 1

Row | effect on RAD51 binding to ssDNA / RAD51-ssDNA nucleoprotein filaments (in words) [1] | SMILES | intercalation score [2]
1 | inhibited | O=C1C(Cl)=C(N2CCOCC2)C(=O)N1c1ccc(Cl)c(Cl)c1 [RI-1] | –
2 | – | CCN(CC)CCCC(C)Nc1ccnc2cc(Cl)ccc12 (centres unmarked) [chloroquine] | 1
